Assays:
[1] = Oxidative metabolic stability in murine microsomes; conditions: for CLint scaled at 0.8 µM: mouse, microsomes
DCN1-UBE2M interaction = DCN1-UBE2M interaction (Homo sapiens, UniProt Q96GG9); experiment: biochemical; type: binding; conditions: for Activity in TR-FRET binding assay, in words: maximum tested concentration 15 μM, values in Supplementary Tables
HCC95 cells = conditions: dose-response up to 30 μM, 5 hours
DCN2 = DCN2 (Homo sapiens, UniProt Q6PH85); experiment: Pulse-chase assay of NEDD8 transfer, DCN2 stimulated; type: biochemical; conditions: 10 μM; NEDD8 transfer from UBE2M to CUL2
Sequence of DCN2 (Q6PH85 whole entry): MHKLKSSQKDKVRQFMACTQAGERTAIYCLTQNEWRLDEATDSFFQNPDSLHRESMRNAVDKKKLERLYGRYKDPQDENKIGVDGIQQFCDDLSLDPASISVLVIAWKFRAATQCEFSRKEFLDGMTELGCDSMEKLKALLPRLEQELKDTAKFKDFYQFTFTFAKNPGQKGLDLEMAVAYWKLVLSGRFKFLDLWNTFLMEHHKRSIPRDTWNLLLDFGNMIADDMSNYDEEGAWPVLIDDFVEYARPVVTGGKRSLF

DCN3 = biological target: T1, DCN3 (Homo sapiens, UniProt Q8IWE4); experiment: Pulse-chase assay of NEDD8 transfer, DCN3 stimulated; type: biochemical; conditions: 10 μM; NEDD8 transfer from UBE2M to CUL2
T1 sequence (Q8IWE4 1-304): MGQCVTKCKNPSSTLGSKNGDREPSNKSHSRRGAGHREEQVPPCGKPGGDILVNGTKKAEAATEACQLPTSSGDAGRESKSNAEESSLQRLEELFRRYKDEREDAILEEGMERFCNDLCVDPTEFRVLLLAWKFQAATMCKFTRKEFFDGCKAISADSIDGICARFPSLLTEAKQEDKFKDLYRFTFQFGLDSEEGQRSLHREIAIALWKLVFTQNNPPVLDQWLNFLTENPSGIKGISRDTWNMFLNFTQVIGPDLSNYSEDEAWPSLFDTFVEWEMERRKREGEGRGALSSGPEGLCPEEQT

DCN4 = biological target: T2, DCN4 (Homo sapiens, UniProt Q92564); experiment: Pulse-chase assay of NEDD8 transfer, DCN4 stimulated; type: biochemical; conditions: 10 μM; NEDD8 transfer from UBE2M to CUL2
T2 sequence (Q92564 1-292): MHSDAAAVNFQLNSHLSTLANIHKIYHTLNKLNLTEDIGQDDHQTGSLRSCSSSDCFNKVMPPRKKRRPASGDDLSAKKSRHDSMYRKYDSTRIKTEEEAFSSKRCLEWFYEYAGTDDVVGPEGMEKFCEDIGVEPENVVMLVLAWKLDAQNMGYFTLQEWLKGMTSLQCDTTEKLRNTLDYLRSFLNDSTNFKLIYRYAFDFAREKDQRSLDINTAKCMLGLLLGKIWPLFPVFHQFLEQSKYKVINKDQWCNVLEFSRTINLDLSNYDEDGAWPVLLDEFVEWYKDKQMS

DCN5 = biological target: T3, DCN5 (Homo sapiens, UniProt Q9BTE7); experiment: Pulse-chase assay of NEDD8 transfer, DCN5 stimulated; type: biochemical; conditions: 10 μM; NEDD8 transfer from UBE2M to CUL2
T3 sequence (Q9BTE7 1-237): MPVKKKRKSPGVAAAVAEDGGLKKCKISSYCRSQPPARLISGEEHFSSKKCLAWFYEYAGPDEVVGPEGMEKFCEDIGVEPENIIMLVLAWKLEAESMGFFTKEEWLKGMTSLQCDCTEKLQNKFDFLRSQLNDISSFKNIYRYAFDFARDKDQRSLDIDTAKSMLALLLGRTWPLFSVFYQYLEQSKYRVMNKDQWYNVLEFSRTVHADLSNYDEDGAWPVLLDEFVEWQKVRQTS

[2] = test system: cullin neddylation in HCC95 cells; conditions: 10 μM (MLN4924 1 μM), 48 hours, most pronounced on CUL1 and CUL3
[3] = test system: cullin neddylation in CAL33 cells; conditions: 10 μM (MLN4924 1 μM), 48 hours, most pronounced on CUL1 and CUL3

Sequence of DCN1-UBE2M interaction (Q96GG9 whole entry): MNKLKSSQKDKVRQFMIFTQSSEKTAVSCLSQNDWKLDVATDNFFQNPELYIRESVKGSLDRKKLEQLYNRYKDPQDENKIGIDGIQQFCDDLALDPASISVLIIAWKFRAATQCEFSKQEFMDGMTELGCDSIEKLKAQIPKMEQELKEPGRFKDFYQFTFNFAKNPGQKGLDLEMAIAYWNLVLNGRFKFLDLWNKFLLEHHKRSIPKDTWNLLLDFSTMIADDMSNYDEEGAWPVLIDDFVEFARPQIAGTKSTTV

## Cc1cccc(C(=O)N[C@@H]2C(=O)Nc3c(c(C)nn3-c3ccccc3)[C@@H]2c2ccc(F)cc2)c1 (racemic) [Compound 3]
[1]
  CLint scaled at 0.8 µM: 50.3 ± 5 mL/min/kg
[1]; murine microsomes, relative to NAcM-OPT
  Murine microsomal stability compared with that previously reported for NAcM-OPT: ≤ 2 fold

## Cc1cccc(C(=O)N[C@@H]2C(=O)Nc3c(c(C)nn3C3CCCC3)[C@@H]2c2ccc(F)cc2)c1 (racemic) [Compound 24]
[1]
  CLint scaled at 0.8 µM: 116 ± 10.7 mL/min/kg

## CCn1nc(C)c2c1NC(=O)[C@@H](NC(=O)c1cccc(C)c1)[C@H]2c1ccc(F)cc1 (racemic) [Compound 65]
DCN1-UBE2M interaction
  Activity in TR-FRET binding assay, in words: roughly equipotent to the phenyl derivative (3)
[1]
  CLint scaled at 0.8 µM: 89.7 ± 4.7 mL/min/kg

## Cc1cccc(C(=O)N[C@H]2C(=O)Nc3c(c(C)nn3-c3ccccc3)[C@@H]2c2ccc(F)cc2)c1 (racemic) [Compound 87, N-((4S,5R)-4-(4-fluorophenyl)-3-methyl-6-oxo-1-phenyl-4,5,6,7-tetrahydro-1H-pyrazolo[3,4-b]pyridin-5-yl)-3-methylbenzamide]
DCN1-UBE2M interaction
  Activity in TR-FRET binding assay, in words: inactive
HCC95 cells
  Effect on reactive oxygen species (DCFDA): neither 27, 87, nor NAcM-OPT have any measurable effects on reactive oxygen species

## Cc1ccc([C@H]2c3c(C)nn(-c4ccccc4)c3NC(=O)[C@H]2NC(=O)c2cccc(C)c2)cc1 (relative stereo) [Compound 1, 3-methyl-N-(rel-(4S,5S)-3-methyl-6-oxo-1-phenyl-4-(p-tolyl)-4,5,6,7-tetrahydro-1H-pyrazolo[3,4-b]pyridin-5-yl)benzamide]
[1]
  CLint scaled at 0.8 µM: 160 ± 5 mL/min/kg

## CCN1C(=O)[C@@H](NC(=O)c2cccc(C)c2)[C@@H](c2ccc(F)cc2)c2c(C)nn(-c3ccccc3)c21 (relative stereo) [Compound 27, N-(rel-(4S,5S)-7-ethyl-4-(4-fluorophenyl)-3-methyl-6-oxo-1-phenyl-4,5,6,7-tetrahydro-1H-pyrazolo[3,4-b]pyridin-5-yl)-3-methylbenzamide]
DCN2
  Inhibition of DCN2 stimulated cullin neddylation (pulse-chase): inhibiting
DCN3
  Inhibition of DCN3 stimulated cullin neddylation (pulse-chase): not inhibited
DCN4
  Inhibition of DCN4 stimulated cullin neddylation (pulse-chase): not inhibited
DCN5
  Inhibition of DCN5 stimulated cullin neddylation (pulse-chase): not inhibited
[1]
  CLint scaled at 0.8 µM: 44.9 ± 3.7 mL/min/kg

## Cc1nn(-c2ccccc2)c2c1[C@H](c1ccc(F)cc1)[C@H](NC(=O)c1cccc(C(F)(F)F)c1)C(=O)N2 [Compound 11]
DCN1-UBE2M interaction
  IC50: 3.5 ± 0.5 µM

## Cc1cccc(NC(=O)[C@@H]2C(=O)Nc3c(c(C)nn3-c3ccccc3)[C@@H]2c2ccc(F)cc2)c1 [Compound 128]
DCN1-UBE2M interaction
  Activity in TR-FRET binding assay, in words: not tolerated

## Cc1nn(-c2ccccc2)c2c1[C@H](c1ccc(F)cc1)[C@H](C(=O)Nc1ccc(Cl)c(Cl)c1)C(=O)N2 [Compound 131]
DCN1-UBE2M interaction
  Activity in TR-FRET binding assay, in words: not tolerated

## NS(=O)(=O)OC[C@@H]1C[C@@H](n2ccc3c(N[C@H]4CCc5ccccc54)ncnc32)C[C@@H]1O [MLN4924]
[2]
  Inhibition of steady-state cullin neddylation (immunoblot), HCC95: complete blockade of neddylation
[3]
  Inhibition of steady-state cullin neddylation (immunoblot), CAL33: complete blockade of neddylation

## CCCCN1CCC(N(Cc2ccccc2)C(=O)Nc2ccc(Cl)c(Cl)c2)CC1 [NAcM-OPT, reference compound]
HCC95 cells
  Effect on reactive oxygen species (DCFDA): neither 27, 87, nor NAcM-OPT have any measurable effects on reactive oxygen species

Source: publication PMC7228038 (Journal of medicinal chemistry, 2019)
